Results reported in article PMC8467136, “Enabling Efficient Folding and High-Resolution Crystallographic Analysis of Bracelet Cyclotides” (Molecules, 2021).
Values joined by “and” are separate entries in the source; they are usually repeats but may differ in a detail not shown here. Equal values may be shown once. Bridge positions count the residues as written; N and C are the ends. Peptide text beside a SMILES is read from it.

Experiments:
[1] = tested on: HeLa cells; test: Cytotoxicity against HeLa cells, resazurin assay; format: cell-based; conditions: 5000 cells/well, 24-h incubation with peptide, then resazurin 18 h, triplicate, mean ± SEM
Procedure: To further confirm the activity of these mutants, their cytotoxicity against HeLa cancer cells was evaluated along with wild-type bracelet cyclotides. […] Of the four [I11G] mutants, the hyen D analogue had the highest activity, possibly because hyen D has one more hydrophobic residue in loop 3 compared to the other three cyclotides, which may contribute to its higher lipid-binding capacity (P/L max = 0.37) and help offset the hydrophobicity loss caused by the [I11G] mutation.
The cytotoxicity of the peptides was evaluated using the resazurin assay, as described previously. HeLa cells were seeded at 5000 cells/well in a 96-well, flat-bottomed plate one day prior to the experiments. Peptide solutions were prepared in water and incubated with HeLa cells at concentrations ranging from 16 to 0.125 μM or 8 to 0.063 μM in triplicate (final concentrations). Water and 1% Triton X-100 (TX) were applied as negative and positive control, respectively. After 24-h incubation, 10 μL of resazurin (0.05%, w/v) was added and incubated with cells for another 18 h. The absorbance was measured at 540 and 620 nm on a microplate reader (Infinite M1000 Pro microplate reader, Tecan, Switzerland). The percentage of cell death was quantified by calculating the absorbance ratio, R (R = absorbance at 620/540), and applying the following equation: % Cell death = (Rsample − RH2O)/(RTX − RH2O) × 100. Data were analyzed with GraphPad Prism software (version 8.3.1) using Specific binding with Hill slope algorithm.

[2] = tested on: POPC/POPE (80:20) model membrane; test: Membrane binding to POPC/POPE lipid bilayers by surface plasmon resonance (SPR); conditions: BIAcore T200, L1 chip, POPC/POPE (80:20) bilayer, 10 mM HEPES, 150 mM NaCl; for P/L Max, peptide-to-lipid maximum binding value: pH 7.4, injection 180 s, dissociation 600 s, nonlinear regression; for Kd: pH 7.4, nonlinear regression, read-out: KD, peptide concentration required to achieve half-maximum binding at equilibrium
Excerpt: Cyclotides are reported to exert their biological activities via membrane binding, particularly by selective binding to lipids containing phosphatidylethanolamine (PE) headgroups. Therefore, to evaluate the functional impact of the single mutation on bracelet cyclotides, the membrane-binding ability of these variants towards PE-containing lipid bilayers was examined using surface plasmon resonance (SPR). The model membrane comprising 80% 1-palmitoyloleoyl-phosphatidylcholine (POPC) and 20% 1-palmitoyloleoyl-phosphatidylethanolamine (POPE) was used. Binding affinity was evaluated by the peptide-to-lipid maximum binding value (P/L max, mol/mol) and the peptide concentration required to achieve half-maximum binding at equilibrium (KD value, μM). […] The negative effect of the [I11G] bracelet cyclotide mutation on lipid binding was expected, as the mutation reduces surface hydrophobicity, a previously reported determinant of membrane binding. The SPR dose-response curves and sensorgrams are shown in Figure S4 in Supplementary Material.
The binding affinity of bracelet cyclotides and their variants toward lipid bilayers was studied using SPR, as described previously. Two synthetic lipids, 1-palmitoyl-2-oleoyl-glycero-3-phosphocholine (POPC) and 1-palmitoyl-2-oleoyl-sn-glycero-3-phosphoethanolamine (POPE), were purchased from Avanti Polar Lipids (USA). Briefly, homogenous, small, unilamellar vesicles composed of POPC/POPE (80:20, mol/mol) were obtained by extruding the vesicle suspension through a 50-nm pore size polycarbonate membrane. L1 sensor chips and BIAcore T200 instrument were used (Cytiva, Marlborough, MA, USA). After the lipid was loaded and formed a bilayer membrane on the L1 chip, peptide solutions were injected over the lipid surface for 180 s and the dissociation was monitored for 600 s. Peptides were tested at concentrations ranging from 4–32 μM. Peptide-to-lipid molar ratio and KD values were calculated by nonlinear regression using GraphPad Prism software (version 8.3.1). Peptide solutions and lipid vesicles were prepared in HEPES buffer (10 mM HEPES, 150 mM NaCl, pH 7.4, filtered) for SPR studies.

SMILES | CC50 on HeLa (half maximum cytotoxic concentration) [1] | P/L Max, peptide-to-lipid maximum binding value [2] | Kd [2]
CC[C@H](C)[C@@H]1NC(=O)[C@H](C)NC(=O)[C@H](C)NC(=O)[C@H]([C@@H](C)O)NC(=O)[C@H](Cc2ccccc2)NC(=O)[C@@H]2CSSC[C@@H]3NC(=O)[C@H](C(C)C)NC(=O)[C@H](CCCCN)NC(=O)[C@H](CO)NC(=O)[C@H](CCCCN)NC(=O)[C@@H]4CSSC[C@H](NC(=O)[C@H](CO)NC(=O)[C@H](CCC(=O)O)NC(=O)CNC(=O)[C@H](CSSC[C@H](NC(=O)CNC1=O)C(=O)N[C@@H](CO)C(=O)N4)NC(=O)[C@@H]1CCCN1C(=O)[C@H](Cc1ccccc1)NC(=O)CNC(=O)[C@H](CC(N)=O)NC(=O)[C@H](CCCCN)NC(=O)[C@H](Cc1ccc(O)cc1)NC3=O)C(=O)N[C@@H](C(C)C)C(=O)N[C@@H](Cc1ccc(O)cc1)C(=O)N[C@@H]([C@@H](C)CC)C(=O)N1CCC[C@H]1C(=O)N2 [hyen D, reference compound] (cyclo(AAIGCSCKSKVCYKNGFPCGESCVYIPCFT); disulfide 5-19, 7-23, 12-28) | 0.85 ± 0.03 µM | 0.37 mol/mol and 0.37 ± 0.01 mol/mol | 4.48 ± 0.17 µM
CC[C@H](C)[C@@H]1NC(=O)[C@@H]2CSSC[C@@H]3NC(=O)[C@H](C(C)C)NC(=O)[C@H](CCCCN)NC(=O)[C@H](CC(=O)O)NC(=O)[C@H]([C@@H](C)O)NC(=O)[C@@H]4CSSC[C@H](NC(=O)[C@H](CO)NC(=O)[C@H](CCC(=O)O)NC(=O)CNC(=O)[C@H](CSSC[C@H](NC(=O)CNC(=O)[C@H]([C@@H](C)CC)NC(=O)[C@H](C(C)C)NC(=O)CNC(=O)[C@H](CO)NC1=O)C(=O)N[C@@H](CO)C(=O)N4)NC(=O)[C@@H]1CCCN1C(=O)[C@H]([C@@H](C)O)NC(=O)CNC(=O)[C@H](CC(N)=O)NC(=O)[C@H](CC(C)C)NC(=O)[C@H](Cc1ccc(O)cc1)NC3=O)C(=O)N[C@@H](C(C)C)C(=O)N[C@@H](Cc1ccc(O)cc1)C(=O)N[C@@H]([C@@H](C)CC)C(=O)N1CCC[C@H]1C(=O)N2 [kB5, kalata B5, reference compound] (cyclo(CGESCVYIPCISGVIGCSCTDKVCYLNGTP); disulfide 1-17, 5-19, 10-24) | 3.11 ± 0.20 µM | 0.22 ± 0.00 mol/mol | 5.02 ± 0.17 µM
